Test results reported in patent publication US20060111333A1, “Structural, behavioral characterization, and synthesis of attractants for migratory lamprey” (priority 2004, published 2006).

Legend:
[1] = tested on: adult lamprey olfactory system; conditions: with high specificity; Polkinghorne 2001, Li 1995, Li 1997; cited from earlier work
[2] = tested on: olfactory epithelium of migratory adult sea lamprey; assay: electro-olfactogram (EOG) recording of olfactory activity; type: in vivo; conditions: odorant pulsed over the nose, FIG. 2 insets
Text: Using electro-olfactogram recording (EOG) to screen for olfactory activity. The EOG measures extracellular voltage transients believed to reflect large numbers of olfactory receptor generator potential (Sorensen et al. in: The Physiology of Fishes, 2nd ed., (ed., R. E. Evans), 375-406, (CRC Press, FL, 1998)). To accomplish EOG recording, freshly-captured migratory adult sea lamprey were anesthetized, immobilized, and their olfactory epithelium exposed following established protocols (Li et al., J. Gen. Physiol., 105, 569-589 (1995); and Li et al., Petromyzon marinus, J. Comp Physiol. A., 180, 429-438 (1997)). One electrode was placed on the head and the other positioned to find a region of maximum sensitivity to our standard, 10^−5 M L-arginine. Test odorants were then pulsed over the nose for 3-sec intervals with breaks. All stimuli were tested at least twice. Aliquots of appropriate solvents were diluted and tested as controls.

migratory sea lampreys = assay: behavioral assay in large 2-choice maze; type: in vivo, sea lamprey; conditions: 14 trials of 4 lampreys
Method: Confirming biological activity using a behavioral assay. Migratory sea lampreys were tested at night in large (9×1.8 meters (m)) 2-choice mazes supplied with natural lake and rivers waters (400 L min^−1) designed to simulate the scenario of lamprey encountering a river plume in a lake. Test odors were pumped down one side (in a way shown by dye to effect complete mixing) and appropriate controls (carriers, etc.) down the other. Trials lasted 15 min and commenced when groups of 4 sea lamprey were released from the upstream section of the maze and the time they spent in the stimulus side or its control noted. Experiments typically employed 14 trails and were evaluated by t-test after arc-sign transformation (Vrieze et al., Can. J. Fish. Aquat. Sci., 58, 2374-2385 (2001)).

Compound | concentration at which the adult lamprey olfactory system detects the product [1] | EOG threshold (lowest concentration detected by EOG recording) [2] | behavioral activity (attraction) in maze (migratory sea lampreys; at 10^−11 M) | behavioral activity (attraction) in maze (migratory sea lampreys; at 10^−12 M) | behavioral activity (attraction) in maze (migratory sea lampreys; at 10^−13 M)
C[C@H](CCC(=O)O)[C@H]1CC[C@H]2[C@@H]3[C@H](O)C[C@H]4C[C@H](O)CC[C@]4(C)[C@H]3C[C@H](O)[C@]12C [ACA, allocholic acid] | 10^−11 Molar (M) | – | – | – | –
C[C@H](CCCOS(=O)(=O)[O-])[C@H]1CC[C@H]2[C@@H]3[C@H](O)C[C@H]4C[C@H](O)CC[C@]4(C)[C@H]3C[C@H](O)[C@]12C.[Na+] [compound 1, petromyzonol sulfate, reference compound] | 10^−12 Molar (M) | below 10^−12 M | only weak and somewhat inconsistent behavioral activity | – | –
CC(C)[C@@H](CC[C@@H](C)[C@H]1CC[C@H]2[C@@H]3[C@H](OS(=O)(=O)[O-])C[C@H]4C[C@@H](NCCCN5CCCC5=O)CC[C@]4(C)[C@H]3CC[C@]12C)OS(=O)(=O)[O-].[Na+].[Na+] [compound 3, petromyzonamine disulfate] | – | 10^−13 M | – | strongly attracted | strongly attracted
petromyzosterol disulfate [compound 2] | – | 10^−12 M | consistently attractive | – | –
